For one test, the system named is ERK1/2 and RXR. The experiment in a line: Co-immunoprecipitation of ERK1/2 and RXR in myoblasts. The test is classed as cell-based, mouse. The following applies: 1 uM, 4 hours, nuclear lysates. How it is done:
Co-immunoprecipitation (Co-IP). Primary myoblasts derived from gastrocnemius muscle were pooled from 10 mice and plated on 15 cm dishes and allowed to adhere for 24 hours. The following day, Bio-Amf2 media was replaced supplemented either with DMSO or 1 uM SCH772984. […] 1 mg of protein was used to immunoprecipitate ERK1/2 using 2 ug of ERK1/2Antibody (Sigma M7927). Rabbit IgG was used as a control. […] 1% of original volume of lysate loaded into IP reaction was loaded into the gel as input control. Membranes were blotted with RXR antibody (SCBT sc-553).

The subject of another test is CaMKII. The experiment in a line: Western blot of CaMKII activation (p-CaMKII T287) in myoblasts. Type of test: cell-based, mouse. The method, then: Western Blot analysis. Cultured cells and whole tissues extracts were prepared with RIPA buffer supplemented with protease inhibitor cocktail (SIGMA P8340), and phosphatase inhibitor cocktails (SIGMA P5726 and P0044). Western blotting was performed using the Mini-PROTEAN Tetra Cell electrophoresis system, and transferred to PVDF membranes. The following primary antibodies concentrations were used p-CAMKII 1:1000 (Abcam ab182647), CaMKII 1:1000 (Cell Signaling 3362), GAPDH 1:10,000 (Abcam ab181602), p-ERK1/2 1:20,000 (SIGMA M9692), ERK1/2 1:40,000 (SIGMA), Myosin Heavy Chain (MF-20 DSHB hybridoma supernatant 1:100) Horseradish peroxidase conjugated secondary anti-mouse, anti-rabbit or anti-goat was used to detect proteins (Jackson Immunology). Western blots were imaged using the Chemidoc Multiplex system (Bio-rad).

A further test deals with primary bovine myoblasts. The experiment in a line: Fusion index of primary bovine myoblasts. The test is classed as cell-based. The following applies: single administration of 0.5 uM, 72 hours post treatment. The method, then: Bovine myoblasts were seeded in equal number in 96-well plates and the following day treated either with PM, PM supplemented with 0.5 uM SCH 772984 (ERKi) or differentiation media (DM). Media was replenished daily either with fresh PM or DM (ERKi was not added again). At 72 hours post treatment, cells were fixed and stained for myosin heavy chain, and several fields per condition were imaged. Nuclei per fiber was quantified per field to result in a fusion index. For ovine myoblasts—equal number of cells were seeded in an 8 well chamber slide for 24 hours. The following day cells were treated with either with 1 uM SCH 772984 (ERKi) or differentiation media (DM), supplemented with 100 nM of Sir-Actin reagent, then incubated for 4 hours and then the slide was transferred to a heated and CO2 chambered microscope unit. Several fields of view were selected and live imaging was performed by capturing images of each field every 7 minutes. The series of images for each treatment over a period of 31 hours was stacked into a movie file using ImageJ.
Primary bovine myoblast isolation and treatment: bovine myoblasts were isolated from freshly slaughtered muscle cow muscle with collagenase type II. Following tissue dissociation, the cell suspension was grown for 3-4 days on 10% Matrigel coated plates. […]

`O=C(Nc1ccc2[nH]nc(-c3ccncc3)c2c1)[C@@H]1CCN(CC(=O)N2CCN(c3ccc(-c4ncccn4)cc3)CC2)C1` [SCH772984]: the “RXR immunoprecipitated with ERK1/2 (interaction)” value with ERK1/2 and RXR is reported as “attenuated”. Further, in the test with CaMKII (1 μM ERKi time-course), the “Time of CaMKII activation post ERKi treatment” value was at most 16 h. Further, the “CaMKII activation (p-CaMKII T287)” value with CaMKII (treatment of myoblasts with ERKi, 24 hours) is listed as “activated”. Besides, the “Increase in fusion index compared to DM” value in the test on primary bovine myoblasts is on record as about 8 fold; in the test on primary bovine myoblasts (listed as ERKi) it was 6 fold.

The values are drawn from patent US20240074473A1, “METHOD FOR INDUCING HYPERTROPHIC MUSCLE FIBERS FOR INDUSTRIAL MEAT PRODUCTION” (Yeda Research and Development Co. Ltd., priority 2021, published 2024).
